Measured values as given in patent US20140121216A1, “INDOLEAMINE DERIVATIVES FOR THE TREATMENT OF CENTRAL NERVOUS SYSTEM DISEASES” (Adamed Sp. z o.o., priority 2011, published 2014).

Assays:
Format in all cases: in vivo
male Wistar rats [1] = test: Reversal of the dizocilpine (MK-801)-induced PPI deficits in rats
Experimental: (§1) Drug-naive male Wistar rats (Charles River, Sulzfeld, Germany) weighing 250-400 g were housed in polycarbonate Makrolon cages (380×200×590 mm) in an environmentally controlled, experimental room (ambient temperature 21-23° C.; relative humidity 50-60%; 12:12 light:dark cycle, lights on at 7:00 a.m.), in groups of 4. Tap water and standard lab chow (Labofeed H, WPIK, Kcynia, Poland) was available ad libitum.
(§2) The animals were delivered to the Animal Research Unit of the Department of Pharmacology, Institute of Psychiatry and Neurology, 2 weeks before the start of experimental procedures. During these 2 weeks all the rats were repeatedly getting used to the presence of the experimenter (handling), and to injections of saline.
On the day before experiments rats were weighted exact to 1 g. Animals were assigned randomly to treatment groups. All the experiments were performed on separate groups of animals, between 9:00 and 15:00. […]
The PPI apparatus consisted of eight acoustic startle chambers (SR-LAB, San Diego Instruments, San Diego, Calif., USA). […] Startle responses, reflecting the motion of animals in the cylinder following the acoustic stimulus, were detected by a piezoelectric transducer mounted below the frame. […]
The average inter-trial interval was 22.5 s (range: 15-30 s). […] Startle responses were measured for 100 ms after the onset of the last trial stimulus. […]

male Wistar rats [2] = test: Conflict test (Vogel test) in rats
Experimental: as §1, §2
On the day before experiments rats were weighted exact to 1 g. Animals were assigned randomly to treatment groups. All the experiments were performed on separate groups of animals, between 9:00 and 15:00. Tested compound was administered intraperitoneally (i.p.) in an injection volume of 2 ml/kg in at least 3 selected doses. Control groups received an appropriate vehiculum. […]
The test was performed by modified method described by Vogel et al. (Psychopharmacologia, 21 (1), 8-12, 1971) using the monitoring system TSE Systems. […] The number of licks and the number of shocks received throughout a 5-min experimental session were recorded automatically.

C57BL/6J mice = test: Tail suspension test in C57BL/6J mice
Experimental: Within 24 h prior to testing, animals were habituated to experimental conditions. For this purpose mice in home cages were transferred to the experimental room for 15 min., while maintaining the lighting and the “white noise” characteristic for the experiment.
The testing procedure was performed on male C57BL/6J mice and based on a method of Steru et al. (The tail suspension test: a new method for screening antidepressants in mice, Psychopharmacology 85, 367-370, 1985). An automated device (Kinder Scientific) was used. After 1 h of adaptation in the experimental room with low light, the mice received the test compound intraperitoneally (at least 3 selected doses).
After a specified time after administration of the test compound mice were suspended by the tail with tape to an aluminum hook connected to a strain gauge. Mice were positioned such that the base of their tail was aligned with the bottom of the hook. […] A strain gauge connected to computer software detected any movements by the mouse in order to record the number of times (events) each subject enters into an escape behavior (struggling episodes), the duration of the event, and the average strength of each event during a 6-min test session. The following settings were used in all experiments: threshold 0.20 Newtons, off delay 30 msec.

In the case of `O=C1CCc2ccc(OCCCCN3CCN(c4cccc5c4ccn5S(=O)(=O)c4ccccc4)CC3)cc2N1` [Compound 24, 7-(4-(4-(1-(Phenylsulphonyl)-1H-indol-4-yl)piperazin-1-yl)butoxy)-3,4-dihydroquinolin-2(1H)-one], the “activity in words, dizocilpine (MK-801)-induced PPI deficit test” value (male Wistar rats [1]) is reported as “active”, the “MED (minimum effective dose), reversal of dizocilpine (MK-801)-induced PPI deficits” value (male Wistar rats [1]; i.p., 60 min. before the test) is reported as 10 mg/kg and the “activity in words, conflict drinking test (Vogel)” value (male Wistar rats [2]) is reported as “active”. For the same molecule, the “MED (minimum effective dose), conflict test (Vogel test)” value (male Wistar rats [2]; i.p.) was 3 mg/kg, the “MED (minimum effective dose), tail suspension test” value (C57BL/6J mice; C57BL/6J mice, i.p.) was 1.25 mg/kg and the “activity in words, tail suspension test” value (C57BL/6J mice; mice) was “active”.
